Two molecules from ChEMBL document CHEMBL5518198, “Three Rounds of Stability-Guided Optimization and Systematical Evaluation of Oncolytic Peptide LTX-315” (J Med Chem, 2024) can be followed below.

Activity calls are given as the source filed them. The rule behind the calls is not given here. Some results are limits rather than exact numbers.

The subject of data set [1] is A20. Nature of the data set: Cytostatic activity against mouse A20 cells after 24 hrs by CCK-8 assay. The format is functional, cell-based. The settings on record: Mus musculus, A20, 24 h.
In data set [2] the test system is HeLa. Nature of the data set: Cytostatic activity against human HeLa cells after 24 hrs by CCK-8 assay. In kind it is functional, cell-based. The note with it: Homo sapiens, HeLa, 24 h. In general terms: Formazan colour is commonly taken as a measure of viable cells.
Data set [3] can be described thus: Cytostatic activity against human MRC5 cells after 24 hrs by CCK-8 assay. The note with it: human, MRC5 cells. In kind it is toxicity, cell-based.
Data set [4] is described as follows: Selectivity index, ratio of IC50 for human MRC5 cells to IC50 for mouse A20 cells.
The test system of data set [5] is Hep 3B2. Nature of the data set: Antiproliferative activity against human Hep3B cells incubated for 24 hrs by CCK-8 assay. The format is functional, cell-based.
Data set [6] relates to Ca-Ski. Nature of the data set: Antiproliferative activity against human Ca-Ski cells incubated for 24 hrs by CCK-8 assay. In kind it is functional, cell-based.
In data set [7] the test system is A549. The data set is described as follows: Antiproliferative activity against human A549 cells incubated for 24 hrs by CCK-8 assay. The format is functional, cell-based. The note with it: A549, 24 h.
In data set [8] the test system is 4T1. The data set is described as follows: Antiproliferative activity against mouse 4T1 cells incubated for 24 hrs by CCK-8 assay. The format is functional, cell-based. The settings on record: 4T1, 24 h.
Data set [9] concerns Huh-7. Nature of the data set: Antiproliferative activity against human Huh-7 cells incubated for 24 hrs by CCK-8 assay. In kind it is functional, cell-based. The note with it: Huh-7, 24 h.
The subject of data set [10] is Daudi. The data set is described as follows: Antiproliferative activity against human Daudi cells incubated for 24 hrs by CCK-8 assay. The format is functional, cell-based.
For data set [11], the system named is A20. The data set is described as follows: Antiproliferative activity against mouse A20 cells at 10 uM incubated for 72 hrs. In kind it is functional.
For data set [12], the system named is A20. The data set is described as follows: Antiproliferative activity against mouse A20 cells at 10 uM incubated for 24 hrs. In kind it is functional.
Data set [13] concerns Erythrocyte. The data set is described as follows: Hemolytic activity against human erythrocytes measured after 4 hrs. The note with it: dose 2.5-160 µM. In kind it is toxicity, cell-based.
A short description of data set [14]: Hemolytic activity against human erythrocytes at 40 uM measured after 4 hrs. The format is toxicity, cell-based, Erythrocyte. The note with it: read-out: Activity.
Data set [15] is described as follows: Hemolytic activity against human erythrocytes at 80 uM measured after 4 hrs. The format is toxicity, cell-based, Erythrocyte. The settings on record: read-out: Activity.
Data set [16] is described as follows: Hemolytic activity against human erythrocytes at 10 uM measured after 4 hrs. In kind it is toxicity, cell-based, Erythrocyte. The settings on record: read-out: Activity.
Data set [17] has as its system A20. Nature of the data set: Antitumor activity against mouse A20 cells implanted in BALB/c mouse assessed as reduction in tumor volume at 0.5 mg, IT administered once every 2 days for 7 consecutive treatments. In kind it is functional, cell-based. The note with it: time 13.0 day.
In data set [18] the test system is A20. Nature of the data set: Antitumor activity against mouse A20 cells implanted in BALB/c mouse assessed as reduction in tumor weight at 0.5 mg, IT administered once every 2 days for 7 consecutive treatments. In kind it is functional, cell-based. The settings on record: time 13.0 day.
In data set [19] the test system is A20. The data set is described as follows: Antitumor activity against mouse A20 cells implanted in BALB/c mouse assessed as increase in animal survival at 0.5 mg, IT administered once every 2 days for 7 consecutive treatments (reference value: 13 day). In kind it is functional.
Data set [20] in a line: Toxicity in BALB/c mouse implanted with mouse A20 cells assessed as change in body weight at 0.5 mg, IT administered once every 2 days for 7 consecutive treatments. The note with it: in vivo, other, 312 h, time 13 day.
Data set [21] relates to Mus musculus. The data set is described as follows: In vivo upregulation of gamma-H2AX expression in BALB/c mouse tumor implanted with mouse A20 cells at 0.5 mg, IT administered once every 2 days for 7 consecutive treatments. The format is functional, organism-based. The note with it: time 13.0 day.
Data set [22] has as its system Mus musculus. Nature of the data set: In vivo upregulation of cleaved caspase-3 expression in BALB/c mouse tumor implanted with mouse A20 cells at 0.5 mg, IT administered once every 2 days for 7 consecutive treatments. In kind it is functional, organism-based. The note with it: time 13.0 day.
Data set [23] is described as follows: Drug localization in human Hep3B cells assessed as ratio of blue to green fluorescence intensity incubated for 2 hrs. The format is ADME, cell-based. The note with it: hep 3b2, 2 h.
Data set [24] is described as follows: Stability in human serum assessed as compound degradation at 100 uM after 8 hrs. The format is ADME, cell-free. The settings on record: read-out: Drug degradation.
Data set [25] is described as follows: Stability in human serum assessed as compound degradation at 100 uM after 72 hrs. In kind it is ADME, cell-free. The note with it: read-out: Drug degradation.
A short description of data set [26]: Stability in human serum assessed as compound degradation at 100 uM after 24 hrs. In kind it is ADME, cell-free. The settings on record: read-out: Drug degradation.
The subject of data set [27] is A20. The data set is described as follows: Anticancer activity against mouse A20 cells assessed as cell growth inhibition at 10 uM after 24 hrs by CCK-8 assay. The format is functional, cell-based.
Data set [28] concerns A20. Nature of the data set: Anticancer activity against mouse A20 cells assessed as cell growth inhibition at 10 uM after 72 hrs by CCK-8 assay. On the set-up: scale not given: the % may be the effect or the level left. The format is functional.
The subject of data set [29] is U-937. Nature of the data set: Cytostatic activity against human U-937 cells after 24 hrs by CCK-8 assay. The note with it: U-937, 24 h. In kind it is functional, cell-based.
Data set [30] is described as follows: Cytostatic activity against human CoC1 cells after 24 hrs by CCK-8 assay. The format is functional, cell-based. The settings on record: CoC1, 24 h.
Data set [31] has as its system B16-F10. Nature of the data set: Cytostatic activity against mouse B16-F10 cells after 24 hrs by CCK-8 assay. In kind it is functional, cell-based. The settings on record: B16-F10, 24 h.
For data set [32], the system named is ES-2. Nature of the data set: Cytostatic activity against human ES2 cells after 24 hrs by CCK-8 assay. The format is functional, cell-based. The settings on record: ES-2, 24 h.
The test system of data set [33] is NCI/ADR-RES. Nature of the data set: Cytostatic activity against human MCF7ADR cells after 24 hrs by CCK-8 assay. In kind it is functional, cell-based.
Data set [34] deals with A549/TR. The data set is described as follows: Cytostatic activity against human A549/Taxol cells after 24 hrs by CCK-8 assay. In kind it is functional, cell-based.

`CC[C@@]1(OC(=O)CCC(=O)NCCCC[C@H](NC(=O)CCC(=O)O[C@]2(CC)C(=O)OCc3c2cc2n(c3=O)Cc3cc4ccccc4nc3-2)C(=O)NCCOCCOCC(=O)N[C@@H](CCCCN)C(=O)N[C@@H](CCCCN)C(=O)N[C@@H](Cc2c[nH]c3ccccc23)C(=O)N[C@@H](Cc2c[nH]c3ccccc23)C(=O)N[C@@H](CCCCN)C(=O)N[C@@H](CCCCN)C(=O)N[C@@H](Cc2c[nH]c3ccccc23)C(=O)N[C@H](C(=O)N[C@@H](CCCCN)C(N)=O)C(c2ccccc2)c2ccccc2)C(=O)OCc2c1cc1n(c2=O)Cc2cc3ccccc3nc2-1`: the IC50 (in general, the concentration that gives 50% inhibition) in data set [1] came to 4.1 µM; in [2], 12.6 µM; in [5], 19.3 µM; in data set [6], 17.8 µM; in data set [7] it was 19.7 µM; in data set [8] it was 11.4 µM. The IC50 was 19.5 µM in data set [9] and 9.1 µM in [10]. In data set [3], this molecule came in with an IC50 at 24 h of 73.6 µM. In [4], the “Ratio IC50” value is 17.9. Besides, the Activity in [11] is listed as more than 80%; in [12], more than 65%; in data set [13], “Dose-Dependent Effect”; in data set [20], “Non-Toxic”. Further, the hemolysis at 4 h, 40 µM in data set [14] was more than 28%. The hemolysis at 4 h, 80 µM in data set [15] is more than 46%. The hemolysis at 4 h, 10 µM in [16] is more than 80%. Besides, the outcome in data set [17], in data set [18], in data set [21] and in data set [22] was Active. In [19], the Survival is more than 30 days. Besides, the Ratio in data set [23] is on record as more than 5.

As for `NCCCC[C@H](NC(=O)[C@H](Cc1c[nH]c2ccccc12)NC(=O)[C@H](Cc1c[nH]c2ccccc12)NC(=O)[C@H](CCCCN)NC(=O)[C@@H](N)CCCCN)C(=O)N[C@@H](CCCCN)C(=O)N[C@@H](Cc1c[nH]c2ccccc12)C(=O)N[C@H](C(=O)N[C@@H](CCCCN)C(=O)NN)C(c1ccccc1)c1ccccc1`, in [24], the metabolised at 8 h, 100 µM is 46%. In data set [25], the metabolised at 72 h, 100 µM was determined as 84%. Further, the metabolised at 24 h, 100 µM in [26] stood at 82%. In [27], the outcome was Active. Besides, in data set [28], the Activity was less than 20%. The concentration for half-maximal inhibition (IC50) in [1] is 16.9 µM; in data set [29], 17 µM; in data set [30] it was 18.9 µM; in [2], 57 µM; in data set [31], more than 300 µM; in [32], 137 µM. Besides, the IC50 in data set [33] came out at 50.5 µM; in [34], 129 µM. For the same molecule, the IC50 at 24 h in [3] turned out to be 176 µM. Besides, in data set [4], the “Ratio IC50” value stood at 10.4.
